The values below come from patent publication US8552017B2, “2-amino-3-sulphonyl-tetrahydro-pyrazolo[1,5-A]pyrido-pyrimidine antagonists of serotonin 5-HT6 receptors, methods for the production and use thereof” (priority 2008, dated 2013).

Counter-ions that a name gives are not always drawn.

Experiment [1] concerns the target T1, 5-HT6 receptor (Homo sapiens (Human), UniProt P50406). The experiment is described as follows: Competitive radioligand binding ([3H] Lysergic acid diethylamide) to serotonin 5-HT6 receptors, HeLa cell membranes. Here is the method: Screening of the disclosed compounds for their potential ability to interact with serotonin 5-HT6 receptors was carried out by the method of radioligand binding. For this purpose membrane species were prepared from HeLa cells expressing recombinant human 5-HT6 receptors, by means of cells homogenization in glass homogenizer with subsequent separation of plasmatic membranes from cell nucli, mitochondria's and cell wreckages by differential centrifugation. Determination of tested compounds binding to 5-HT6 receptors was carried out according to the method described in [Monsma F J Jr, Shen Y, Ward R P, Hamblin M W and Sibley D R, Cloning and expression of a novel serotonin receptor with high affinity for tricyclic psychotropic drugs. Mol Pharmacol. 43:320-327, 1993]. […] Methiothepin was used as a positive control. Binding of the tested compounds with the receptor was determined by their ability to displace the radioligand and was expressed in percent of displacement. The percent of displacement was calculated according to the following equation:
[formula] wherein: TA—was overall radioactivity in the presence of radioligand only, CA—was radioactivity in the presence of radioligand and tested compound and NA—was radioactivity in the presence of radioligand and Serotonin (5 μM).

Experiment [2] has as its target T1, 5-HT6 receptor. The experiment is described as follows: Antagonistic activity test towards 5-HT6 receptors (serotonin-induced intracellular cAMP, LANCE cAMP kit, HEK 293 cells). The class given is cell-based. As to conditions: read-out: IC50 in the setting of functional assay. As for the experimental part: Antagonistic activity test of compounds of the general formulas 1 and 2 towards 5-HT6 receptors. Compounds of general formulas 1 and 2 were tested for their ability to prevent 5-HT6 receptors activation by serotonin. HEK 293 cells (kidney cells of human's embryo) with artificially expressed 5-HT6 receptor, activation of which by serotonin leads to increasing the concentration of intracellular cAMP were used. Intracellular cAMP content was determined using reagent kit LANCE cAMP (PerkinElmer) according to the method described by the manufacturer of the kit [http://las.perkinelmer.com/content/Manuals]. Effectiveness of compounds was estimated by their ability to reduce the content of intracellular cAMP induced by serotonin.

T1 sequence (P50406 whole entry): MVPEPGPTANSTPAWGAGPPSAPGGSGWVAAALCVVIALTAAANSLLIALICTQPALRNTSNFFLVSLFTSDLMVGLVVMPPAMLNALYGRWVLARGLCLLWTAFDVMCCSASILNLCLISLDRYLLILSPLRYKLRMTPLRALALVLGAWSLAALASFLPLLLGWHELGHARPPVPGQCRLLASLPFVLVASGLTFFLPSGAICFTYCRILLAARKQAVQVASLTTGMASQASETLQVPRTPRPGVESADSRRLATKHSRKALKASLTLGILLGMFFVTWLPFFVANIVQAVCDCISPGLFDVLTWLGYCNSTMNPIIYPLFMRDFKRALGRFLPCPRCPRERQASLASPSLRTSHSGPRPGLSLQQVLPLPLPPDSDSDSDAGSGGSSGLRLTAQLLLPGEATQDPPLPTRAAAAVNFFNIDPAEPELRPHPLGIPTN

The molecule `CNc1nn2c3c(c(C)nc2c1S(=O)(=O)c1ccccc1)CN(C)CC3` [1.1(4)•HCl] came in with an IC50 on 5-HT6 receptor [1] (1.5 nM [3H] Lysergic acid diethylamide) of 1.48 nM. The molecule further gave a Ki at 5-HT6 receptor [1] (Ki=IC50/(1+[L]/KD)) of 0.685 nM.

`CNc1nn2c3c(cnc2c1S(=O)(=O)c1ccccc1)CN(C)CC3` [1.1(3), 2-methylamino-7-methyl-3-phenylsulfonyl-6,7,8,9-tetrahydropyrazolo[1,5-a]pyrido[4,3-e]pyrimidine]: at 5-HT6 receptor [2], the IC50 was 29.7 nM.
